# Assay results published in patent publication US12071441B2, “10-(di(phenyl)methyl)-4-hydroxy-8,9,9A,10-tetrahydro-7H-pyrrolo[1′,2′:4,5]pyrazino[1,2-b]pyridazine-3,5-dione derivatives and related compounds as inhibitors of the orthomyxovirus replication for treating influenza” (Novartis AG, priority 2018, dated 2024).
# What was measured:
# Test in all cases: microbe, parasite or virus in culture
# Type in all cases: cell-based
# [1] = tested on: influenza A virus minigenome (PB2, PB1, PA, NP; luciferase reporter) in 293T cells, RNP_Hubei; details: HEK-293T, 48 h
# [2] = tested on: influenza A virus minigenome (PB2, PB1, PA, NP; luciferase reporter) in 293T cells, RNP_CAL; details: HEK-293T, 48 h, read-out: RNP_CAL_EC50
# [3] = tested on: influenza A virus minigenome (PB2, PB1, PA, NP; luciferase reporter) in 293T cells, RNP_Alaska; details: HEK-293T, 48 h
SMILES,EC50 [1] [nM],EC50 [2] [nM],EC50 [3] [nM]
"O=C(Oc1c2n(ncc1=O)[C@@H]([C@H](c1ccccc1)c1cccc(F)c1F)[C@H]1CCCN1C2=O)C1CCOCC1 [Example 75, (9aR,10S)-10-((R)-(2,3-difluorophenyl)(phenyl)methyl)-3,5-dioxo-3,5,8,9,9a,10-hexahydro-7H-pyrrolo[1′,2′:4,5]pyrazino[1,2-b]pyridazin-4-yl tetrahydro-2H-pyran-4-carboxylate]",< 100,< 100,< 100
"CC(=O)OCOc1c2n(ncc1=O)[C@@H]([C@H](c1ccccc1)c1cccc(F)c1F)[C@H]1CCCN1C2=O [Example 76, (((9aR,10S)-10-((R)-(2,3-difluorophenyl)(phenyl)methyl)-3,5-dioxo-3,5,8,9,9a,10-hexahydro-7H-pyrrolo[1′,2′:4,5]pyrazino[1,2-b]pyridazin-4-yl)oxy)methyl acetate]",< 100,< 100,< 100
"CCC(=O)OCOc1c2n(ncc1=O)[C@@H]([C@H](c1ccccc1)c1cccc(F)c1F)[C@H]1CCCN1C2=O [Example 77, (((9aR,10S)-10-((R)-(2,3-difluorophenyl)(phenyl)methyl)-3,5-dioxo-3,5,8,9,9a,10-hexahydro-7H-pyrrolo[1′,2′:4,5]pyrazino[1,2-b]pyridazin-4-yl)oxy)methyl propionate]",< 100,< 100,< 100
"Cc1oc(=O)oc1COc1c2n(ncc1=O)[C@@H]([C@H](c1ccc(F)cc1)c1cccc(F)c1F)[C@H]1CCCN1C2=O [Example 80, (9aR,10S)-10-((R)-(2,3-difluorophenyl)(4-fluorophenyl)methyl)-4-((5-methyl-2-oxo-1,3-dioxol-4-yl)methoxy)-8,9,9a,10-tetrahydro-7H-pyrrolo[1′,2′:4,5]pyrazino[1,2-b]pyridazine-3,5-dione]",< 100,< 100,< 100
"COC(=O)OCOc1c2n(ncc1=O)[C@@H]([C@H](c1ccc(F)cc1)c1cccc(F)c1F)[C@H]1CCCN1C2=O [Example 82, (((9aR,10S)-10-((R)-(2,3-difluorophenyl)(4-fluorophenyl)methyl)-3,5-dioxo-3,5,8,9,9a,10-hexahydro-7H-pyrrolo[1′,2′:4,5]pyrazino[1,2-b]pyridazin-4-yl)oxy)methyl methyl carbonate]",< 100,< 100,< 100
"CC(=O)Oc1c2n(ncc1=O)[C@@H]([C@H](c1ccc(F)cc1)c1cccc(F)c1F)[C@H]1CCCN1C2=O [Example 83, (9aR,10S)-10-((R)-(2,3-difluorophenyl)(4-fluorophenyl)methyl)-3,5-dioxo-3,5,8,9,9a,10-hexahydro-7H-pyrrolo[1′,2′:4,5]pyrazino[1,2-b]pyridazin-4-yl acetate]",< 100,< 100,< 100
"CC(C)C(=O)Oc1c2n(ncc1=O)[C@@H]([C@H](c1ccc(F)cc1)c1cccc(F)c1F)[C@H]1CCCN1C2=O [Example 84, (9aR,10S)-10-((R)-(2,3-difluorophenyl)(4-fluorophenyl)methyl)-3,5-dioxo-3,5,8,9,9a,10-hexahydro-7H-pyrrolo[1′,2′:4,5]pyrazino[1,2-b]pyridazin-4-yl isobutyrate]",< 100,< 100,< 100
"CN(C)C(=O)OCOc1c2n(ncc1=O)[C@@H]([C@H](c1ccc(F)cc1)c1cccc(F)c1F)[C@H]1CCCN1C2=O [Example 85, (((9aR,10S)-10-((R)-(2,3-difluorophenyl)(4-fluorophenyl)methyl)-3,5-dioxo-3,5,8,9,9a,10-hexahydro-7H-pyrrolo[1′,2′:4,5]pyrazino[1,2-b]pyridazin-4-yl)oxy)methyl dimethylcarbamate]",100 to 1000,100 to 1000,≥ 1000
"COCCOC(=O)OCOc1c2n(ncc1=O)[C@@H]([C@H](c1ccc(F)cc1)c1cccc(F)c1F)[C@H]1CCCN1C2=O [Example 86, (((9aR,10S)-10-((R)-(2,3-difluorophenyl)(4-fluorophenyl)methyl)-3,5-dioxo-3,5,8,9,9a,10-hexahydro-7H-pyrrolo[1′,2′:4,5]pyrazino[1,2-b]pyridazin-4-yl)oxy)methyl (2-methoxyethyl) carbonate]",< 100,< 100,< 100
"CC(C)OC(=O)Oc1c2n(ncc1=O)[C@@H]([C@H](c1ccc(F)cc1)c1cccc(F)c1F)[C@H]1CCCN1C2=O [Example 88, (9aR,10S)-10-((R)-(2,3-difluorophenyl)(4-fluorophenyl)methyl)-3,5-dioxo-3,5,8,9,9a,10-hexahydro-7H-pyrrolo[1′,2′:4,5]pyrazino[1,2-b]pyridazin-4-yl isopropyl carbonate]",< 100,< 100,< 100
"CCOC(=O)OCOc1c2n(ncc1=O)[C@@H]([C@H](c1ccc(F)cc1)c1cccc(F)c1F)[C@H]1CCCN1C2=O [Example 92, (((9aR,10S)-10-((R)-(2,3-difluorophenyl)(4-fluorophenyl)methyl)-3,5-dioxo-3,5,8,9,9a,10-hexahydro-7H-pyrrolo[1′,2′:4,5]pyrazino[1,2-b]pyridazin-4-yl)oxy)methyl ethyl carbonate]",< 100,< 100,< 100
"CC(C)CC(=O)Oc1c2n(ncc1=O)[C@@H]([C@H](c1ccc(F)cc1)c1cccc(F)c1F)[C@H]1CCCN1C2=O [Example 93, (9aR,10S)-10-((R)-(2,3-difluorophenyl)(4-fluorophenyl)methyl)-3,5-dioxo-3,5,8,9,9a,10-hexahydro-7H-pyrrolo[1′,2′:4,5]pyrazino[1,2-b]pyridazin-4-yl 3-methylbutanoate]",< 100,< 100,< 100
"COC(=O)OCOc1c2n(ncc1=O)[C@@H]([C@H](c1cccc(F)c1)c1cccc(F)c1F)[C@H]1CCCN1C2=O [Example 95, (((9aR,10S)-10-((R)-(2,3-difluorophenyl)(3-fluorophenyl)methyl)-3,5-dioxo-3,5,8,9,9a,10-hexahydro-7H-pyrrolo[1′,2′:4,5]pyrazino[1,2-b]pyridazin-4-yl)oxy)methyl methyl carbonate]",< 100,< 100,< 100
"CN(C)C(=O)Oc1c2n(ncc1=O)[C@@H]([C@H](c1cccc(F)c1)c1cccc(F)c1F)[C@H]1CCCN1C2=O [Example 96, (9aR,10S)-10-((R)-(2,3-difluorophenyl)(3-fluorophenyl)methyl)-3,5-dioxo-3,5,8,9,9a,10-hexahydro-7H-pyrrolo[1′,2′:4,5]pyrazino[1,2-b]pyridazin-4-yl dimethylcarbamate]",100 to 1000,≥ 1000,≥ 1000
"COCCOC(=O)Oc1c2n(ncc1=O)[C@@H]([C@H](c1cccc(F)c1)c1cccc(F)c1F)[C@H]1CCCN1C2=O [Example 97, (9aR,10S)-10-((R)-(2,3-difluorophenyl)(3-fluorophenyl)methyl)-3,5-dioxo-3,5,8,9,9a,10-hexahydro-7H-pyrrolo[1′,2′:4,5]pyrazino[1,2-b]pyridazin-4-yl (2-methoxyethyl) carbonate]",< 100,< 100,< 100
"O=C(Oc1c2n(ncc1=O)[C@@H]([C@H](c1cccc(F)c1)c1cccc(F)c1F)[C@H]1CCCN1C2=O)N1CCCCC1 [Example 98, (9aR,10S)-10-((R)-(2,3-difluorophenyl)(3-fluorophenyl)methyl)-3,5-dioxo-3,5,8,9,9a,10-hexahydro-7H-pyrrolo[1′,2′:4,5]pyrazino[1,2-b]pyridazin-4-yl piperidine-1-carboxylate]",≥ 1000,≥ 1000,≥ 1000
"COCCOC(=O)OCOc1c2n(ncc1=O)[C@@H]([C@H](c1cccc(F)c1)c1cccc(F)c1F)[C@H]1CCCN1C2=O [Example 99, (((9aR,10S)-10-((R)-(2,3-difluorophenyl)(3-fluorophenyl)methyl)-3,5-dioxo-3,5,8,9,9a,10-hexahydro-7H-pyrrolo[1′,2′:4,5]pyrazino[1,2-b]pyridazin-4-yl)oxy)methyl (2-methoxyethyl) carbonate]",< 100,< 100,< 100
"CN1CCN(C(=O)Oc2c3n(ncc2=O)[C@@H]([C@H](c2cccc(F)c2)c2cccc(F)c2F)[C@H]2CCCN2C3=O)CC1 [Example 100, (9aR,10S)-10-((R)-(2,3-difluorophenyl)(3-fluorophenyl)methyl)-3,5-dioxo-3,5,8,9,9a,10-hexahydro-7H-pyrrolo[1′,2′:4,5]pyrazino[1,2-b]pyridazin-4-yl 4-methylpiperazine-1-carboxylate]",100 to 1000,≥ 1000,≥ 1000
"O=C(Oc1c2n(ncc1=O)[C@@H]([C@H](c1cccc(F)c1)c1cccc(F)c1F)[C@H]1CCCN1C2=O)N1CCC(N2CCCCC2)CC1 [Example 102, (9aR,10S)-10-((R)-(2,3-difluorophenyl)(3-fluorophenyl)methyl)-3,5-dioxo-3,5,8,9,9a,10-hexahydro-7H-pyrrolo[1′,2′:4,5]pyrazino[1,2-b]pyridazin-4-yl [1,4′-bipiperidine]-1′-carboxylate]",≥ 1000,≥ 1000,≥ 1000
"COC(=O)C(C)(C)OC(=O)OCOc1c2n(ncc1=O)[C@@H]([C@H](c1cccc(F)c1)c1cccc(F)c1F)[C@H]1CCCN1C2=O [Example 104, methyl 2-((((((9aR,10S)-10-((R)-(2,3-difluorophenyl)(3-fluorophenyl)methyl)-3,5-dioxo-3,5,8,9,9a,10-hexahydro-7H-pyrrolo[1′,2′:4,5]pyrazino[1,2-b]pyridazin-4-yl)oxy)methoxy)carbonyl)oxy)-2-methylpropanoate]",100 to 1000,100 to 1000,100 to 1000
"CC(=O)Oc1c2n(ncc1=O)[C@@H]([C@H](c1cccc(F)c1)c1cccc(F)c1F)[C@H]1CCCN1C2=O [Example 105, (9aR,10S)-10-((R)-(2,3-difluorophenyl)(3-fluorophenyl)methyl)-3,5-dioxo-3,5,8,9,9a,10-hexahydro-7H-pyrrolo[1′,2′:4,5]pyrazino[1,2-b]pyridazin-4-yl acetate]",< 100,< 100,< 100
